Columns and labels:
[1] = in vivo; cited from earlier work
[2] = Tissue-distribution study after i.v. legubicin or doxorubicin; conditions: HT1080 tumor-bearing mice; for brain penetration of the metabolite / tissue concentration rank order of the metabolite: after i.v. legubicin 9.05 µmol/kg
Description: The mixture was vortexed for 3 min, and then centrifuged at 22,000× g at 4 °C for 10 min. A final analysis was conducted by injecting 5 µL supernatant into a UHPLC-MS/MS system. Mouse plasma samples were treated in the same way as the rat plasma samples, except for protein precipitation, with 200 µL of 5 pmol/mL IS working solution and injection of 2 µL of supernatant for analysis.
Each legubicin administration group corresponded to a sampling time-point (4, 16, 32, 48, 96, 168, and 240 h after administration). […] Blood samples and tumor, heart, and kidney tissues were collected at the sampling time points (4, 16, 32, 48, 96, 168, and 240 h after dosing). In addition, liver, spleen, lung, stomach, small intestine, gonads, brain, skeletal muscle, and skin were also collected at 4, 32, 96, and 240 h post-dose time points in the legubicin administration group. All whole-blood samples were processed according to the same processing steps, described above, for rat whole-blood samples.
The analysis software (Version 1.5.2, AB Sciex, Vaughan, ON, Canada) was applied to data acquisition and quantification. Pharmacokinetic parameters were calculated with WinNonlin Phoenix (v6.4, Pharsight, Mountain View, CA, USA) with the noncompartmental method, and were presented as mean ± SD (%CV). The “Best fit” strategy in the WinNonlin Phoenix was used for the calculation of elimination half-life and the selection of the elimination phase. Graphs were plotted by GraphPad Software (GraphPad Prism 8.0.2; GraphPad Software, Inc., La Jolla, CA, USA).

[3] = target: T1, legumain (Homo sapiens, UniProt Q99538); assay: Stability of Leu-DOX in the legumain enzymatic system; assay type: in vitro ADME; conditions: plasma samples spiked with Leu-DOX, enzymatic digestion procedure (24 h, 37 °C), n = 3
T1 sequence (Q99538 18-433): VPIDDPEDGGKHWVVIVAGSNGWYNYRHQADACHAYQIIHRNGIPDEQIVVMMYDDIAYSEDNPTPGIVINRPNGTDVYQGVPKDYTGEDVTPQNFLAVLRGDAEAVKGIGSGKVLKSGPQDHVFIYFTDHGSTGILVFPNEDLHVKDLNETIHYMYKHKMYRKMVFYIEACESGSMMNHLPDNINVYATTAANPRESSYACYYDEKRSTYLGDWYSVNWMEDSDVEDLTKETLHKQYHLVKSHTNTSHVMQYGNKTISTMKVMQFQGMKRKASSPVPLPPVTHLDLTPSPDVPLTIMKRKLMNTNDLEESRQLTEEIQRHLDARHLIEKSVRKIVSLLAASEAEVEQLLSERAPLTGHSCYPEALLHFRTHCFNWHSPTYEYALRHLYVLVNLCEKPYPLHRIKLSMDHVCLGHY
Description: The specific liquid-phase conditions are shown as follows. Column: Agilent Eclipse Plus 4.6 × 250 mm, 5 µm; mobile phase A: 0.1% trifluoroacetic acid in water; mobile phase B: acetonitrile. Flow rate: 1.0 mL/min; HPLC: Waters 2695; detector: Waters 2475 detector (ex470/em600); column temperature: 30 °C; injection volume: 10 µL; run time: 30 min; needle wash solvent: 50% acetonitrile in water; gradient elution: starting 20% B, increasing from 20% to 45% B in 15 min, increasing from 45% to 80% B in 15 to 20 min, maintained for 5 min, then decreasing to 20% B in 0.1 min, and continuing until the end of 30 min. (b) Kinetics of Leu-Dox release from legubicin (black) and legubicin–albumin conjugate (blue) in the presence of legumain (n = 4). (c) Stability of Leu-Dox in this enzymatic system (n = 3).
The assessment of Leu-DOX stability in the aforementioned enzymatic systems warrants careful consideration. Consequently, plasma samples containing Leu-DOX were intentionally supplemented to assess the potential impacts of these methods on the precise determination of the enzymatic digestion of the legubicin plasma protein complex, which is utilized for determining the total Leu-DOX post-digestion. […]

[4] = i.v. 9.05 µmol/kg of the labelled drug, n = 6, UHPLC-MS/MS

Question: For `COc1cccc2c1C(=O)c1c(O)c3c(c(O)c1C2=O)C[C@@](O)(C(=O)CO)C[C@@H]3O[C@H]1C[C@H](N)[C@H](O)[C@H](C)O1` [DOX, Doxorubicin], which Vz [1] is on record?
Answer: 72 L/kg

Question: What about the “clearance (CL)” value [1] of the same compound?
Answer: approximately 2553 mL/h/kg

Question: What about the “AUClast of doxorubicin in heart” value [2, 4] of the same compound?
Answer: 29.0 nmol·h/g

Question: What about the “AUClast of doxorubicin in kidney” value [2, 4] of the same compound?
Answer: 83.5 nmol·h/g

Question: And the “AUClast of doxorubicin in plasma” value [2, 4]?
Answer: 1.07 nmol·h/g

Question: And the “AUClast of doxorubicin in tumor” value [2, 4]?
Answer: 63.1 nmol·h/g

Question: And the “order of exposure (Dox distribution)” value ([2]; after i.v. doxorubicin 9.05 µmol/kg, n = 6)?
Answer: kidney > tumor > heart > plasma

Question: What about the “time of maximum concentration (Cmax) in all tissues” value ([2]; after i.v. doxorubicin 9.05 µmol/kg, initial sampling point) of the same compound?
Answer: 4 h

Question: And the “brain penetration of the metabolite” value [2]?
Answer: neither the metabolite doxorubicin nor free Leu-Dox permeated the brain

Question: And the “tissue concentration rank order of the metabolite” value ([2]; n = 6)?
Answer: liver having the highest levels, followed by the tumor, skin, lung, gonads, spleen, kidney, stomach, small intestine, skeletal muscle, heart, and plasma

Question: For `COc1cccc2c1C(=O)c1c(O)c3c(c(O)c1C2=O)C[C@@](O)(C(=O)CO)C[C@@H]3O[C@H]1C[C@H](NC(=O)[C@@H](N)CC(C)C)[C@H](O)[C@H](C)O1` [Leu-DOX, N-L-leucyl-doxorubicin], which “stability in the legumain enzymatic digestion system” value [3] is on record?
Answer: remained unaltered throughout the enzymatic digestion procedure

Question: What about the “brain penetration of the metabolite” value [2] of the same compound?
Answer: neither the metabolite doxorubicin nor free Leu-Dox permeated the brain

Question: And the “tissue concentration rank order of the metabolite” value ([2]; n = 6)?
Answer: highest concentration in the liver, followed by the spleen, small intestine, kidney, tumor, lung, skin, gonads, stomach, plasma, skeletal muscle, and heart

— paper PMC10892419, “UHPLC-MS/MS Assay for Quantification of Legubicin, a Novel Doxorubicin-Based Legumain-Activated Prodrug, and Its Application to Pharmacokinetic and Tissue Distribution Studies” (Molecules, 2024)
